Measured values taken from patent US6403576B1, “Antifungal and antiparasitic compounds” (priority 1998, dated 2002).
pIC50: −log10 of the molar value. Values after ≈ are worked out from the molar mass of the structure shown. Counter-ions that a name gives are not always drawn. Like-named read-outs stand apart in the source and are kept apart here.

Legend:
Leishmania = test: Mevalonate as nutritional supplement of in vitro cultures; assay type: cell-based; details: mevalonate-fed cultures
Method: To investigate this, we used ^14C-mevalonic acid to determine rate of incorporation by Leishmania (1.0 ng/hr/108 parasites at 25° C, using the respirometric assay. We also looked at mevalonic acid catabolism and found mevalonate is sparingly metabolized to CO2 (less than 1/25 the rate of aspartic acid metabolism, a most rapidly catabolized amino acid, Jackson, et al., 1989, Am J Trop Med Hyg 41, 318-330) even when the promastigotes are maintained under starvation condition for 30 minutes. When mevalonate was added as a nutritional supplement the parasites grew profusely but less rapidly than parallel unsupplemented control cultures. […] Given these preliminary observations: it appears Leishmania (a) incorporate mevalonic acid readily from their environment; (b) catabolism is spared even under starvation conditions; and (c) mevalonic acid can act as a nutritional supplement in vitro.

[1] = system: T.b. brucei Lab 110 EATRO; test: Growth of bloodform trypanosomes in vitro, IC50 at 48 h; assay type: cell-based, Trypanosoma brucei brucei; details: for IC50: Trypanosoma brucei
Text: (§1) Trypanosome (a) IN VITRO drug screening method: 14 clinical isolates of Trypanosoma brucei rhodesiense (agent of East African Sleeping Sickness) many of which are refractory to standard trypanocides such as diamidines and melarsoprol (Bacchi et al., 1990, Antimicrob Agents Chemother 34, 1183-1188) are maintained as laboratory infections in rats and mice and as frozen stabilates of blood forms. Six of these isolates have been cultivated as blood forms in modified Iscove's medium (Hirumi & Hirumi, 1989, J Parasitol 75, 985-989). These cultivated blood forms are fully infective and serve as the initial screen for trypanocides based on a 24 well culture plate system and readings done on duplicate wells using a Coulter Counter (Bacchi and Yartlett, 1993, Acta Tropica 54, 225-236; Bacchi et al., 1996, Antimicrob Agents Chemother 4, 1448-1453).
(§2) The trypanosomes studied were Trypanosoma brucei brucei Lab 110 EATRO, which is pathogenic to cattle and other livestock, and several strains of Trypanosoma brucei rhodesiense, a parasite of humans, domestic and wild animals. Strains of T. b. rhodesiense included drug resistant clinical isolates KETRI 243 and 269 and KETRI 243 As-10-3, a highly melarsen- and diamidine-resistant clone of KETRI 243. The 19 extracts were tested in an in vitro screen using a semi-defined medium for growth of bloodstream trypomastigotes at 37° C. (Hirumi & Hirumi, 1989, supra) to determine IC50 values (Bacchi et al., 1996, supra).
(§3) Inhibitory of cholesterol synthesis, metabolism, and/or excretion described above in the detailed description were tested versus trypanosome isolates grown as bloodforms in HMI-18 medium containing 10% fetal bovine serum.

[2] = system: T.b. rhodesiense KETRI 243 As-10-3; test: as above; assay type: cell-based; details: Trypanosoma brucei
Text: as §1, with “1448-1453). This screen has proven highly reproducible, needs minimal drug since the volume is limited (1 ml medium/well) and is complete after 48 h. It has proven to be highly predictive of in vivo activity (e.g., Brun et al., 1996, Antimicrob Agents Chemother 40, 1442-1447; Bacchi et al., 1996, supra).” for “1448-1453).”
as §2
as §3, with “Numerous similarities in leishmanial and trypanosomal lipid uptake and metabolism may explain common natural product drug susceptibility. Inhibitory” for “Inhibitory”

[3] = system: T.b. rhodesiense KETRI 243; test: as above; assay type: cell-based, Trypanosoma brucei rhodesiense; details: for IC50: Trypanosoma brucei, RHODESIENSE
Text: as §1, with “1448-1453). This screen has proven highly reproducible, needs minimal drug since the volume is limited (1 ml medium/well) and is complete after 48 h. It has proven to be highly predictive of in vivo activity (e.g., Brun et al., 1996, Antimicrob Agents Chemother 40, 1442-1447; Bacchi et al., 1996, supra).” for “1448-1453).”
as §2
as §3, with “Numerous similarities in leishmanial and trypanosomal lipid uptake and metabolism may explain common natural product drug susceptibility. Inhibitory” for “Inhibitory”

Squalene Synthetase = details: Abe et al, 1994; cited from earlier work
[4] = system: T.b. rhodesiense KETRI 269; test: Growth of bloodform trypanosomes in vitro, IC50 at 48 h; assay type: cell-based, Trypanosoma brucei rhodesiense; details: for IC50: Trypanosoma brucei, RHODESIENSE
Text: as §1, with “1448-1453). This screen has proven highly reproducible, needs minimal drug since the volume is limited (1 ml medium/well) and is complete after 48 h. It has proven to be highly predictive of in vivo activity (e.g., Brun et al., 1996, Antimicrob Agents Chemother 40, 1442-1447; Bacchi et al., 1996, supra).” for “1448-1453).”
as §2
as §3, with “Numerous similarities in leishmanial and trypanosomal lipid uptake and metabolism may explain common natural product drug susceptibility. Inhibitory” for “Inhibitory”

Squalene Oxidase = Squalene Oxidase (Homo sapiens, UniProt Q14534); details: Abe et al, 1994; cited from earlier work
[5] = system: macrophage cholesterol synthesis; details: cited from earlier work
J-774 A.1 macrophages = details: 10 uM; not from mevalonate; cited from earlier work
[6] = Table 7, HMI-18 medium, 10% fetal bovine serum, 48 h, read-out: IC50 Lab 110 EATRO
[7] = Table 7, HMI-18 medium, 10% fetal bovine serum, 48 h, read-out: IC50 243
[8] = Table 7, HMI-18 medium, 10% fetal bovine serum, 48 h
[9] = Table 7, HMI-18 medium, 10% fetal bovine serum, 48 h, read-out: IC50 269
[10] = read-out: IC50 KETRI 243 As-103

Sequence of Squalene Oxidase (Q14534 whole entry): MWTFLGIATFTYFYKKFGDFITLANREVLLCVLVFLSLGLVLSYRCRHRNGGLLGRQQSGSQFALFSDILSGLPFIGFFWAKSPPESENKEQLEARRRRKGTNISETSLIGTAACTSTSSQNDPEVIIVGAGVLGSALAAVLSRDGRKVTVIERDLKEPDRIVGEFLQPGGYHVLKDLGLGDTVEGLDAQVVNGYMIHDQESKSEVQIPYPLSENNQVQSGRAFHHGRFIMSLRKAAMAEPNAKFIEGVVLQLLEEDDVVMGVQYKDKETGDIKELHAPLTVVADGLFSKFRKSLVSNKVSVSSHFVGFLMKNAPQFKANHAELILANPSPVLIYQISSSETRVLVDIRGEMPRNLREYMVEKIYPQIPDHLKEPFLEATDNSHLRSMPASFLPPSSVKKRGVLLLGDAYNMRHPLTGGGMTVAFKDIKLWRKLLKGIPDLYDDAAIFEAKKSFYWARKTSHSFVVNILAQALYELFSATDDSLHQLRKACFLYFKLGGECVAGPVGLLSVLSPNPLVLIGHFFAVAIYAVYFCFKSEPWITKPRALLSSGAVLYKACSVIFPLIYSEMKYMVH

C[C@@](O)(CCO)CC(=O)O [mevalonic acid]
logarithmic phase growth longer than unsupplemented cultures (Leishmania): 2 fold | duration of logarithmic phase growth (Leishmania; unsupplemented ended at 4-5 days): > 10 days

COCc1c(C(C)C)nc(C(C)C)c(/C=C/[C@@H](O)C[C@@H](O)CC(=O)O)c1-c1ccc(F)cc1 [Baycol, 7-[4-(4-fluorophenyl)-5-(methoxymethyl)-2,6-bis(1-methylethyl)-3-pyridinyl]-3,5-dihydroxy-, monosodium salt, [S-(R*,S*-(E))]]-]
IC50 [1, 6]: 13 µg/mL | IC50 ([2]; read-out: IC50 243 As 10-3): 52 µg/mL | IC50 [3, 7]: 7.7 µg/mL

CC(C)n1c(/C=C/C(O)CC(O)CC(=O)O)c(-c2ccc(F)cc2)c2ccccc21 (racemic) [Lescol, 6-Heptenoic acid, 3,5-dihydro-7-[3-(4-fluorophenyl)-1-(1-methylethyl)-1H-indol-2-yl-]-[R*,S*-(E)]-, (+−)-]
IC50 Lab 110 EATRO [1, 8]: >100 µg/mL | IC50 243 [3, 8]: >100 µg/mL

CC(=O)O[C@H](CCC[C@]12O[C@H](C(=O)O)[C@@](O)(C(=O)O)[C@](C(=O)O)(O1)[C@H](OC(=O)CC/C=C/[C@H](C)CCCc1ccccc1)[C@H]2O)[C@H](C)Cc1ccccc1 [Zaragozic acid C]
pIC50 (Squalene Synthetase): 10.35

CCC(C)(C)C(=O)O[C@H]1C[C@@H](C)C=C2C=C[C@H](C)[C@H](CC[C@@H]3C[C@@H](O)CC(=O)O3)[C@H]21 (relative stereo) [Zocor, [1S-[1-alpha(beta-S*,delta-S*), 2-alpha, 6-alpha,8-beta(R*),8a-alpha]]2,2-dimethylbutanoic acid 1,2,3,7,8,8a-hexahydro-3,7-dimethyl-8-[2-(tetrahydro-4-hydroxy-6-oxo-2H-pyran-2-yl)ethyl]-1-naphthalenyl ester]
IC50 [1, 6]: 1.33 µg/mL (≈ 3.18 µM) | IC50 [4, 9]: 7 µg/mL (≈ 16.7 µM) | IC50 [3, 7]: 12.9 µg/mL (≈ 30.8 µM)

C=C(CC[C@]12O[C@H](C(=O)O)[C@@](O)(C(=O)O)[C@](C(=O)O)(O1)[C@H](OC(=O)/C=C/[C@@H](C)C[C@@H](C)CC)[C@H]2O)[C@@H](OC(C)=O)[C@H](C)Cc1ccccc1 [Zaragozic acid A]
pIC50 (Squalene Synthetase): 10.11

CCN(C/C=C/C#CC(C)(C)C)Cc1cccc(OCc2cc(-c3ccsc3)cs2)c1 [NB-598]
pIC50 (Squalene Oxidase): 9.12

CC[C@H](C)C(=O)O[C@H]1C[C@H](O)C=C2C=C[C@H](C)[C@H](CC[C@@H](O)C[C@@H](O)CC(=O)O)[C@H]21 [Pravachol, [1S-(1-alpha(beta-S*,delta-S*),2-alpha, 6-alpha,8-beta(R*),8a-alpha]]-1,2,6,7,8,8a-hexahydro-2-methyl-8-(2-methyl-1-oxobutoxy)-beta,delta,6-trihydroxy-1-Naphthaleneheptanoic acid monosodium salt]
IC50 [1, 6]: > 100 µg/mL | LDL increased ([5]; 0.1 mg/ml pravastatin): 119% | concentration that increased cholesterol esterification [5]: ≤ 0.19 mg/mL | concentration that inhibited cholesterol esterification [5]: > 0.19 mg/mL | increased LDL degradation ([5]; humans, 40 mg/day for 8 weeks): 57% | inhibited cholesterol synthesis ([5]; humans, 40 mg/day for 8 weeks): 55-62% | IC50 [3, 7]: > 100 µg/mL

CC(=O)OC1OC(OC2C(OC3CC[C@@]4(C)C(=CCC5C4CC[C@@]4(C)C5CC5OC6(CC[C@@H](C)CO6)[C@@H](C)[C@@]54O)C3)OC(CO)C(O)C2OC2OC(C)C(O)C(O)C2O)C(O)C(O)C1O (stereo partly shown) [SU-1461, Mannispirostan A]
IC50 ([1]; Table 2, secondary extracts, * extracts precipitated in medium after 24 h, read-out: IC50 T.b. brucei 110): 6.4 µg/mL (≈ 6.89 µM)

Cc1ccc(C)c(OCCCC(C)(C)C(=O)O)c1 [Lopoid, Pentanoic acid, 5-(2,5-dimethylphenoxy)-2,2-dimethyl-]
IC50 [1, 6]: > 100 µg/mL | IC50 [3, 7]: > 100 µg/mL

CC[C@H](C)C(=O)O[C@H]1C[C@@H](C)C=C2C=C[C@H](C)[C@H](CC[C@@H]3C[C@@H](O)CC(=O)O3)[C@H]21 (relative stereo) [Mevacor, Butanoic acid, 2-methyl-,1,2,3,7,8,8a-hexahydro-3,7-dimethyl-8-[2-(tetrahydro-4-hydroxy-6-oxo-2H-pyran-2-yl)ethyl]-1-naphthalenyl ester,[1S[1alpha(R*),3alpha,7beta,8beta(2S*,4S*), 8abeta]]-]
IC50 Lab 110 EATRO [1]: 3.3 µg/mL (≈ 8.16 µM) | IC50 269 [4, 8]: 6.9 µg/mL (≈ 17.1 µM) | IC50 243 [3, 8]: 4.4 µg/mL (≈ 10.9 µM)

CN(C/C=C/c1ccccc1)Cc1cccc2ccccc12 [Naftifine, 1-Naphthalenemethanamine, N-methyl-N-(3-phenyl-2-propenyl)-(E)]
pIC50 (Squalene Oxidase): 6.03

C/C=C/CCCC/C=C/CCCCC(=O)O[C@@H]1[C@@H](O)[C@@]2(CCC(C)C(O)C(C)C/C=C/c3ccccc3)O[C@H](C(=O)O)[C@@](O)(C(=O)O)[C@]1(C(=O)O)O2 (stereo partly shown) [Zaragozic acid B]
pIC50 (Squalene Synthetase): 10.54

CN(C/C=C/C#CC(C)(C)C)Cc1cccc2ccccc12 [Lamisil, 1-Naphthalenemethanamine, N-(6,6-dimethyl-2-hepten-4-ynyl)-N-methyl-, (E)-]
IC50 [1, 6]: 1.3 µg/mL (≈ 4.46 µM) | IC50 ([2]; read-out: IC50 243 As 10-3): > 100 µg/mL | IC50 [4, 9]: 77 µg/mL (≈ 264 µM) | IC50 [3, 7]: 86 µg/mL (≈ 295 µM)

CC1=C(/C=C/C(C)=C/C=C/C(C)=C/C=C/C=C(C)/C=C/C=C(C)/C=C/C2=C(C)CCCC2(C)C)C(C)(C)CCC1 [beta-carotene]
cholesterol synthesis inhibited from acetate (J-774 A.1 macrophages): 63%

N=C(N)c1ccc(OCCCCCOc2ccc(C(=N)N)cc2)cc1 [Pentamidine]
IC50 ([1]; Table 1, 48 hr cultures, HMI-18 medium, read-out: IC50 EATRO 110): 0.00048 µg/mL (≈ 0.00141 µM) | IC50 [2, 10]: 0.003 µg/mL (≈ 0.00881 µM) | IC50 ([4]; Table 1, 48 hr cultures, HMI-18 medium, read-out: IC50 KETRI 269): 0.00192 µg/mL (≈ 0.00564 µM) | IC50 ([3]; Table 1, 48 hr cultures, HMI-18 medium, read-out: IC50 KETRI 243): 0.00186 µg/mL (≈ 0.00546 µM)

CCOC(=O)C(C)(C)Oc1ccc(Cl)cc1 [Atromid-S, Propanoic acid, 2-(4-chlorophenoxy)-2-methyl-, ethyl ester]
IC50 [1, 6]: > 100 µg/mL | IC50 [3, 7]: > 100 µg/mL

C=C(CC[C@]12O[C@H](C(=O)O)[C@@](O)(C(=O)O)[C@](C(=O)O)(O1)[C@H](O)[C@H]2O)[C@@H](OC(C)=O)[C@H](C)Cc1ccccc1 [Squalestatin 3]
pIC50 (Squalene Synthetase): 8.23

C=C(CC[C@]12O[C@H](C(=O)O)[C@@](O)(C(=O)O)[C@](C(=O)O)(O1)[C@H](OC(=O)/C=C/[C@@H](C)C[C@@H](C)CC)[C@H]2O)[C@@H](O)[C@H](C)Cc1ccccc1 [Squalestatin 2]
pIC50 (Squalene Synthetase): 7.82

C=C(CC[C@]12O[C@H](C(=O)O)[C@@](O)(C(=O)O)[C@](C(=O)O)(O1)[C@H](OC(=O)/C=C/[C@@H](C)C[C@@H](C)CC)[C@H]2O)[C@@H](OC(C)=O)[C@H](C)Cc1ccccc1 [Squalestatin 1]
pIC50 (Squalene Synthetase): 7.82

Nc1nc(N)nc(Nc2ccc([As]=O)cc2)n1 (stereo not shown) [Melarsen Oxide]
IC50 ([1]; 48 h, read-out: IC50 EATRO 110): 0.00077 µg/mL | IC50 [2, 10]: 0.0072 µg/mL | IC50 ([4]; 48 h, read-out: IC50 KETRI 269): 0.0066 µg/mL | IC50 ([3]; 48 h, read-out: IC50 KETRI 243): 0.0025 µg/mL
